Here are results for twelve compounds from ChEMBL document CHEMBL1201862, “PubChem BioAssay data set” (2004).

Test systems include HL-60; U-251; SK-MEL-2; 786-0; ACHN; HCC 2998; OVCAR-4; IGROV-1; LOX IMVI; CAKI-1; NCI-H522; OVCAR-8; SF-268; OVCAR-3; RXF 393; A549; HCT-116; HCT-15.
What all share (test): inhibition of tumour cell growth, NCI panel, 48 h

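These data come from cells grown in 96-well plates and exposed to compound for 48 hours at five concentrations. At the GI50, growth is halved.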 Active and inactive are the calls of the source. No stated cut-off is given here; in the data, active = GI50 up to about 1.1 µM and inactive = higher.

As to `CC1=C(C(=O)Nc2cccc(C(F)(F)F)c2)C(c2ccc(O)cc2)C(C(=O)Nc2cccc(C(F)(F)F)c2)=C(C)N1`, the GI50 in the assay with HL-60 was 15.1 µM (inactive); with U-251 it was 17.1 µM (inactive); in the assay on SK-MEL-2 it was 17.3 µM (inactive); in the assay with 786-0 it was 16.7 µM (inactive); in the assay on ACHN, 20.3 µM (inactive); with HCC 2998, 17.3 µM (inactive). Moreover, the GI50 in the assay on OVCAR-4 was 14.8 µM (inactive); in the assay with IGROV-1 it was 15.6 µM (inactive); with LOX IMVI, 15.6 µM (inactive); with CAKI-1 it was 11.6 µM (inactive); in the assay with NCI-H522 it was 15.5 µM (inactive); in the assay with OVCAR-8 it was 23.2 µM (inactive). Further, the GI50 in the assay on SF-268 was 26.5 µM (inactive); in the assay on OVCAR-3 it was 15.7 µM (inactive); in the assay with RXF 393, 10.1 µM (inactive); in the assay on A549 it was 24.4 µM (inactive); with HCT-116 it was 14.6 µM (inactive).
In the case of `CCC(CC)NC1=C(NC(C)=O)C(=O)c2ccccc2C1=O`, the GI50 in the assay with HL-60, in the assay with U-251, with SK-MEL-2, in the assay with 786-0, in the assay on ACHN and in the assay with HCC 2998 was > 50 µM (inactive) each time. For the same compound, the GI50 was > 50 µM (inactive) in the assay on OVCAR-4; > 50 µM (inactive) with IGROV-1; over 50 µM with HCT-15; > 50 µM (inactive) with LOX IMVI; > 50 µM (inactive) in the assay on NCI-H522; > 50 µM (inactive) with OVCAR-8. Moreover, the GI50 in the assay with SF-268, in the assay with OVCAR-3, in the assay on RXF 393, with A549 and with HCT-116 was > 50 µM (inactive) throughout.
As to `CCN(CC)CCNc1ccc(C)c2sc3ccc(O)cc3c(=O)c12`, the GI50 in the assay with HL-60 is 0.106 µM (active); in the assay with U-251 it was 1.09 µM (active); in the assay on SK-MEL-2, 1.79 µM (inactive); in the assay on 786-0, 0.655 µM (active); in the assay on ACHN it was 0.201 µM (active); in the assay with HCC 2998, 1.36 µM (inactive). Also, the GI50 is 2.7 µM (inactive) in the assay on OVCAR-4; 1.23 µM (inactive) with IGROV-1; 0.923 µM with HCT-15; 0.711 µM (active) with LOX IMVI; 5.73 µM (inactive) with CAKI-1; 1.28 µM (inactive) in the assay with NCI-H522. For the same compound, the GI50 in the assay with OVCAR-8 is 1.37 µM (inactive); in the assay on SF-268 it was 1.8 µM (inactive); in the assay on OVCAR-3 it was 2.15 µM (inactive); with RXF 393, 2.51 µM (inactive); in the assay on A549 it was < 0.0431 µM (active); in the assay with HCT-116, 1.15 µM (inactive).
As to `NC(CCCC(N)P(=O)(O)c1ccccc1)P(=O)(O)c1ccccc1` (stereo unspecified), the GI50 with HL-60, in the assay on U-251, in the assay on SK-MEL-2, with 786-0, with ACHN and with HCC 2998 was > 261 µM (inactive) throughout. In addition, the GI50 in the assay with OVCAR-4 is > 261 µM (inactive); in the assay on IGROV-1, > 261 µM (inactive); with HCT-15, over 261 µM; with LOX IMVI it was > 261 µM (inactive); in the assay on NCI-H522, > 261 µM (inactive); with OVCAR-8 it was > 261 µM (inactive). Also, the GI50 in the assay with SF-268, in the assay on OVCAR-3, with RXF 393, in the assay with A549 and in the assay with HCT-116 was > 261 µM (inactive) throughout.
As for `CCN1CCC(O)(/C=C/c2ccccc2)C(C(=O)/C=C/c2ccccc2)C1` (stereo unspecified), the GI50 was 1.64 µM (inactive) in the assay on HL-60; 2.15 µM (inactive) in the assay with U-251; 2.65 µM (inactive) with SK-MEL-2; 1.75 µM (inactive) in the assay on 786-0; 1.72 µM (inactive) in the assay with ACHN; 1.96 µM (inactive) in the assay on HCC 2998. Further, the GI50 with OVCAR-4 is 3.27 µM (inactive); in the assay with IGROV-1 it was 1.85 µM (inactive); with HCT-15, 1.87 µM; with CAKI-1, 2.71 µM (inactive); with NCI-H522, 1.73 µM (inactive); in the assay with OVCAR-8 it was 1.89 µM (inactive). Also, the GI50 with SF-268 is 2.54 µM (inactive); in the assay on OVCAR-3, 3.1 µM (inactive); in the assay on RXF 393, 1.67 µM (inactive); in the assay on A549, 4.86 µM (inactive); with HCT-116 it was 1.63 µM (inactive).
For `Cc1cccc(NC(=O)C(=O)C2C(=O)NC(=O)NC2=O)c1C`, the GI50 with HL-60, in the assay on U-251, in the assay on SK-MEL-2, with 786-0, with ACHN and with HCC 2998 was > 100 µM (inactive) throughout. For the same compound, the GI50 was > 100 µM (inactive) in the assay with OVCAR-4; > 100 µM (inactive) in the assay with IGROV-1; over 100 µM in the assay with HCT-15; > 100 µM (inactive) with LOX IMVI; > 100 µM (inactive) in the assay with CAKI-1; > 100 µM (inactive) in the assay on NCI-H522. The GI50 in the assay with OVCAR-8, with SF-268, with OVCAR-3, with RXF 393, with A549 and in the assay on HCT-116 was > 100 µM (inactive) each time.
Regarding `COC(=O)c1ccc2n[se]nc2c1`, the GI50 in the assay on HL-60, with U-251, with SK-MEL-2, with 786-0, in the assay on ACHN and in the assay on HCC 2998 was > 100 µM (inactive) in each case. For the same compound, the GI50 in the assay with OVCAR-4 is > 100 µM (inactive); in the assay with IGROV-1, > 100 µM (inactive); in the assay with HCT-15, over 100 µM; in the assay on LOX IMVI, > 100 µM (inactive); with CAKI-1 it was > 100 µM (inactive); with NCI-H522, > 100 µM (inactive). Also, the GI50 with OVCAR-8, in the assay with SF-268, in the assay with RXF 393, in the assay on A549 and in the assay with HCT-116 was > 100 µM (inactive) throughout.
As for `O=C1C(=O)C2(CC1S(=O)(=O)c1ccccc1)c1ccccc1-c1ccccc12` (stereo unspecified), the GI50 in the assay on HL-60 is 27.9 µM (inactive); in the assay on U-251, 18.6 µM (inactive); in the assay on SK-MEL-2 it was 18.1 µM (inactive); in the assay on 786-0 it was 26.6 µM (inactive); in the assay on ACHN, 28.6 µM (inactive); in the assay with HCC 2998, 14.7 µM (inactive). In addition, the GI50 in the assay with OVCAR-4 was 48.9 µM (inactive); in the assay on IGROV-1 it was 23.1 µM (inactive); in the assay with HCT-15, 16.7 µM; with LOX IMVI, 18.5 µM (inactive); with CAKI-1 it was 29 µM (inactive); in the assay on NCI-H522 it was 22.5 µM (inactive). For the same compound, the GI50 is 17.9 µM (inactive) in the assay on OVCAR-8; 27.4 µM (inactive) in the assay with SF-268; > 10 µM (inactive) in the assay with OVCAR-3; 18.7 µM (inactive) with RXF 393; 24.7 µM (inactive) in the assay on A549; 17.3 µM (inactive) in the assay with HCT-116.
Take `O=C(Nc1ccccc1SC(/C=C/NNC1=NN=C(c2ccccc2)C(c2ccccc2)N1)c1ccccc1)c1ccc(Cl)cc1Cl` (stereo unspecified): the GI50 was 35.6 µM (inactive) with HL-60; 25.6 µM (inactive) in the assay with U-251; 20.9 µM (inactive) in the assay on SK-MEL-2; 37.9 µM (inactive) in the assay on 786-0; 82.8 µM (inactive) with ACHN; 47 µM (inactive) with HCC 2998. Also, the GI50 in the assay on OVCAR-4 was 35.9 µM (inactive); in the assay with IGROV-1, 50 µM (inactive); with HCT-15 it was 36 µM; in the assay on LOX IMVI, 36.2 µM (inactive); in the assay with NCI-H522, > 100 µM (inactive); in the assay with OVCAR-8, 74.5 µM (inactive). Also, the GI50 is 35.6 µM (inactive) in the assay with SF-268, 44.5 µM (inactive) in the assay on OVCAR-3, 40.7 µM (inactive) in the assay with RXF 393 and 38.9 µM (inactive) in the assay on A549.
With `CCOC(=O)CCC(NC(=O)c1ccc(NCc2ccc3nc(-c4ccccc4)c(Cl)nc3c2)cc1)C(=O)OCC` (stereo unspecified), the GI50 was 17.4 µM (inactive) in the assay with HL-60; 69.7 µM (inactive) in the assay with U-251; 10.6 µM (inactive) in the assay on SK-MEL-2; 80.7 µM (inactive) with 786-0; 37.9 µM (inactive) with ACHN; 92.3 µM (inactive) with HCC 2998. For the same compound, the GI50 is 20.9 µM (inactive) in the assay with OVCAR-4; 27.9 µM (inactive) in the assay with IGROV-1; 64.1 µM in the assay with HCT-15; 26.1 µM (inactive) with LOX IMVI; 30.6 µM (inactive) in the assay with CAKI-1; 19.5 µM (inactive) with NCI-H522. Moreover, the GI50 was 53.8 µM (inactive) with SF-268; 17.2 µM (inactive) in the assay with OVCAR-3; 48.9 µM (inactive) in the assay on RXF 393; 47.8 µM (inactive) in the assay on A549; 40.7 µM (inactive) in the assay on HCT-116.
For the compound `O=C1c2ccccc2C(=O)N1CCN(CCN1C(=O)c2ccccc2C1=O)Cn1cccn1`, the GI50 in the assay with HL-60 is 27.4 µM (inactive); with U-251, > 100 µM (inactive); in the assay with SK-MEL-2 it was > 100 µM (inactive); with 786-0, > 100 µM (inactive); with ACHN, > 100 µM (inactive); with HCC 2998, > 100 µM (inactive). Besides, the GI50 was > 100 µM (inactive) with OVCAR-4; over 100 µM with HCT-15; > 100 µM (inactive) in the assay on LOX IMVI; > 100 µM (inactive) in the assay with CAKI-1; > 100 µM (inactive) in the assay on NCI-H522; > 100 µM (inactive) with OVCAR-8. The GI50 is > 100 µM (inactive) in the assay on SF-268; > 100 µM (inactive) with OVCAR-3; > 100 µM (inactive) in the assay on RXF 393; > 100 µM (inactive) with A549; 17.8 µM (inactive) in the assay with HCT-116.
Consider `C=CC1(C)CCC(C(C)C(=O)C(C=C(C)C)OC(C)=O)C12C(=O)Oc1ccccc1C2=O` (stereo unspecified), for which the GI50 in the assay with HL-60 is 19.7 µM (inactive); with U-251, 38 µM (inactive); with SK-MEL-2, 32.7 µM (inactive); in the assay with 786-0, 84.1 µM (inactive); with ACHN, 51.5 µM (inactive); in the assay on HCC 2998 it was 82.4 µM (inactive). Besides, the GI50 in the assay with OVCAR-4 is 45.2 µM (inactive); in the assay on IGROV-1, 72.3 µM (inactive); in the assay with HCT-15 it was 38.5 µM; with LOX IMVI, 35.7 µM (inactive); in the assay with NCI-H522, 31.6 µM (inactive); with OVCAR-8 it was 37.6 µM (inactive). Besides, the GI50 in the assay with SF-268 is 62.1 µM (inactive); with OVCAR-3 it was 38.9 µM (inactive); in the assay with RXF 393 it was 26.7 µM (inactive); with A549 it was 35.7 µM (inactive); in the assay on HCT-116 it was 31.1 µM (inactive).
